Measurements from US8568969B2, “RBP4 in insulin sensitivity/resistance, diabetes, and obesity” (Beth Israel Deaconess Medical Center, Inc., priority 2003, dated 2013).

Key:
serum RBP4 = target: T1, serum RBP4 (Mus musculus, UniProt Q00724); test: Serum RBP4 levels (immunoblot) in mice fed high fat diet with fenretinide; type: in vivo; conditions: oral, 0.04% fenretinide in high fat diet, FVB mice
T1 construct: from tissue; host or cells: mouse serum (FVB and AG4KO mice)
Procedure: Serum or plasma RBP4 was measured by diluting the serum or plasma 20 times in a standard detergent-containing buffer, separated by 15% SDS-PAGE, and transferred to nitrocellulose (Kim, Y. B., et al. Diabetes 48:310-320 (1999)). Mouse RBP4 and human RBP4 were detected using anti-rat or anti-human (DAKO, Germany) polyclonal antisera, respectively, followed by standard ECL detection.
(§1) To determine the effect of RBP4 independently of transgenic manipulation, adult FVB mice were treated with fenretinide (4-hydroxyphenyl retinamide, 4-HPR), a synthetic retinoid originally designed for cancer therapy. […] Three-week old male FVB mice received chow diet, high fat diet or high fat diet supplemented with 0.04% fenretinide. Fenretinide gel capsules were emptied and added directly to the fat soluble vitamin component of the Harlan-Teklad laboratory high fat diet in at the time of diet preparation. Light exposure was minimized during fenretinide high fat diet preparation. Fenretinide high fat diet was stored in the dark at 4° C. and were placed in mouse cages at 2-3 day intervals. […] Thus, both genetic and pharmacological interventions that decrease RBP4 levels improve insulin sensitivity even in obesity.

[1] = test system: obese mice on a high fat diet (HFD); test: Insulin tolerance test (ITT) in mice on high fat diet; type: in vivo, mouse; conditions: HFD with 0.04% fenretinide, 15 weeks of treatment, 1.1 U/kg insulin
Procedure: (§2) Plasma glucose was measured by glucometer (One Touch Ultra, Lifescan). Insulin (crystal chemical), FFAs (Wako) and adipokines (leptin, adiponectin, and resistin) (LINCO research) were measured using commercially available kits. ITT was performed by i.p. injection of recombinant regular human insulin 3-4 hours after food removal. Different insulin doses were used for different mouse lines and ages as described. GTT was performed by i.p. injection of glucose (1 or 2 g D-glucose per kg body weight) after overnight fasting.
as §1

[2] = test system: obese mice on a high fat diet (HFD); test: Glucose tolerance test (GTT) in mice on high fat diet; type: in vivo, mouse; conditions: HFD with 0.04% fenretinide for 16 weeks, 2 g/kg glucose
Procedure: as §2, §1

[3] = Food intake, body weight and obesity on high fat diet; type: in vivo, mouse; conditions: 0.04% fenretinide in high fat diet, FVB mice
Procedure: as §1

ob/ob mice [4] = test: IPGTT in ob/ob mice treated with fenretinide; type: in vivo, mouse
Procedure: IPGTT (2 mg/g body weight) was performed on mice (12 weeks old) after 8 weeks of diet/treatment (FIG. 26A). Plasma glucose was measured at the indicated times; the open circles represent ob/+, the closed circles represent ob/ob mice and the open squares represent ob/ob mice treated with fenretinide.
IPGTT (1 mg/g body weight) was performed on mice (42 weeks old). After 38 weeks of diet/treatment (FIG. 26B), plasma glucose was measured at the indicated times; the closed squares are ob/+, the closed circles are ob/+ mice treated with fenretinide; open squares are ob/ob and open circles are ob/ob treated with fenretinide.

ob/ob mice [5] = test: Long-term mortality of ob/ob mice; type: in vivo, mouse; conditions: 10 months of treatment, compared to untreated controls
Text: The ob/ob mice at 10 months of age were severely obese.

RXR isoforms = conditions: in vitro; cited from earlier work
RBP4 with TTR = RBP4 with TTR (Homo sapiens, UniProt P02753); conditions: cited from earlier work

## CC1=C(/C=C/C(C)=C/C=C/C(C)=C/C(=O)Nc2ccc(O)cc2)C(C)(C)CCC1 [fenretinide, 4-hydroxyphenyl retinamide]
Serum RBP4
  serum RBP4 levels: lowered serum RBP4 levels in obese mice on a high fat diet (HFD) to the level of non-obese control mice on a chow diet
[1]
  insulin sensitivity (ITT): improved insulin sensitivity
[2]
  glucose tolerance (GTT): normalized glucose tolerance
[3]
  body weight: did not affect
  development of obesity on the high fat diet: did not affect
  food intake: did not affect
ob/ob mice [4]; ob/ob mice 12 weeks old, 8 weeks of treatment, 2 mg/g body weight
  glucose tolerance (IPGTT): greatly improved their glucose tolerance
ob/ob mice [4]; ob/ob mice 42 weeks old, 38 weeks of treatment, 1 mg/g body weight
  glucose disposal (IPGTT): improve glucosed disposal to nearly that of heterozygous mice
ob/ob mice [5]
  long term mortality: reduced by almost half
RXR isoforms
  activation of RXR isoforms: does not activate
RBP4 with TTR
  interaction of RBP4 with TTR: disrupts the interaction of RBP4 with TTR
